The test system of one data set is HeLa. Kind of data set: Antiproliferative activity against human HeLa cells assessed as reduction in cell growth inhibition. Type of data set: functional, cell-based.
Data set [1] is described as follows: Cytotoxicity against African green monkey Vero cells by MTT assay. It is filed as toxicity, cell-based. The note with it: chlorocebus sabaeus. (Tetrazolium dyes change colour on reduction, which living cells bring about.)
Another data set relates to Human coronavirus 229E. Kind of data set: Antiviral activity against HCoV-229E assessed as reduction of viral RNA level at 4 uM. Type of data set: functional, organism-based.

Where only a bound is given, the exact number is not on record here.

As usually defined, the IC50 is the concentration that inhibits the measured activity by half. In general, CC50 refers to the concentration giving 50% cytotoxicity.

As for `CN1CCN(CCOc2cc(OC3CCOCC3)c3c(Nc4c(Cl)ccc5c4OCO5)ncnc3c2)CC1` [SARACATINIB], the IC50 is 2400 nM in the data set on HeLa and 5.1 µM with Human coronavirus 229E. For the same compound, the CC50 in data set [1] is > 50 µM.
